The target in one assay is Collagenase 3 (Homo sapiens, UniProt P45452). Put plainly: Inhibition of human MMP13 catalytic domain using Mca-Pro-Leu-Gly-Leu-Dpa-Ala-Arg-NH2 fluorogenic substrate by spectrophotometric analysis.
Assay [1] deals with Macrophage metalloelastase (Homo sapiens) (UniProt P39900). Nature of the assay: Ratio of Ki for human MMP12 catalytic domain (Met105 to Lys263 residues) at pH 9.5 to Ki for human MMP12 catalytic domain (Met105 to Lys263 residues) at pH 6.
Assay [2] concerns the target 72 kDa type IV collagenase (Homo sapiens) (UniProt P08253). Put plainly: Inhibition of human MMP2 catalytic domain using Mca-Pro-Leu-Gly-Leu-Dpa-Ala-Arg-NH2 fluorogenic substrate by spectrophotometric analysis.
For a further assay, the target named is Stromelysin-2 (Homo sapiens, UniProt P09238). Nature of the assay: Inhibition of human MMP10 catalytic domain using Mca-Pro-Leu-Gly-Leu-Dpa-Ala-Arg-NH2 fluorogenic substrate by spectrophotometric analysis.
Chain of Stromelysin-2 (P09238 whole entry, the tested form may be a part): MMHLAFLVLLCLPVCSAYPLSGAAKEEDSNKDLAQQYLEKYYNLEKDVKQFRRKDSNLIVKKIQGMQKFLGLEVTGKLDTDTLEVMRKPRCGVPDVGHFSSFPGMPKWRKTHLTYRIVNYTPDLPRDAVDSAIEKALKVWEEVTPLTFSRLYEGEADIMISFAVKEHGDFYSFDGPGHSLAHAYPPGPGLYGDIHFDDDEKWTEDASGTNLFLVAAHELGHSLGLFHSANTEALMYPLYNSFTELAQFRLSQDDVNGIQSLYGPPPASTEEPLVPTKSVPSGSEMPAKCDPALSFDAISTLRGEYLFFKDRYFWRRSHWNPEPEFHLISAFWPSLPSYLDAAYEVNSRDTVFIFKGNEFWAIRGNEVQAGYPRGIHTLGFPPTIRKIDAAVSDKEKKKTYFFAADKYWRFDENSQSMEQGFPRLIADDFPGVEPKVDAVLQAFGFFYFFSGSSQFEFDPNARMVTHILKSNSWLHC

Activity calls are given as the source filed them. The rule behind the calls is not given here.

Chain of Macrophage metalloelastase (Homo sapiens) (P39900 106-470 limits assumed): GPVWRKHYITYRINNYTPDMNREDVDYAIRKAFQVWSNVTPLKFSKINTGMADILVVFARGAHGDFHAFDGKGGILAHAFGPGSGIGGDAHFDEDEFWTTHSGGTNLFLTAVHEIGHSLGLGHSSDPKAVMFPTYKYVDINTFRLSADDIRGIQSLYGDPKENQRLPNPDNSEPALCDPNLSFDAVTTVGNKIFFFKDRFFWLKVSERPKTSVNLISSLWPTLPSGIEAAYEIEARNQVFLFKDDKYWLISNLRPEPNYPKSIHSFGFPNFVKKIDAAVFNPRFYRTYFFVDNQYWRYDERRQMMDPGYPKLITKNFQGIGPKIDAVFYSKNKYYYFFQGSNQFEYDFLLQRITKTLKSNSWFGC
Chain of 72 kDa type IV collagenase (Homo sapiens) (P08253 110-660 limits assumed): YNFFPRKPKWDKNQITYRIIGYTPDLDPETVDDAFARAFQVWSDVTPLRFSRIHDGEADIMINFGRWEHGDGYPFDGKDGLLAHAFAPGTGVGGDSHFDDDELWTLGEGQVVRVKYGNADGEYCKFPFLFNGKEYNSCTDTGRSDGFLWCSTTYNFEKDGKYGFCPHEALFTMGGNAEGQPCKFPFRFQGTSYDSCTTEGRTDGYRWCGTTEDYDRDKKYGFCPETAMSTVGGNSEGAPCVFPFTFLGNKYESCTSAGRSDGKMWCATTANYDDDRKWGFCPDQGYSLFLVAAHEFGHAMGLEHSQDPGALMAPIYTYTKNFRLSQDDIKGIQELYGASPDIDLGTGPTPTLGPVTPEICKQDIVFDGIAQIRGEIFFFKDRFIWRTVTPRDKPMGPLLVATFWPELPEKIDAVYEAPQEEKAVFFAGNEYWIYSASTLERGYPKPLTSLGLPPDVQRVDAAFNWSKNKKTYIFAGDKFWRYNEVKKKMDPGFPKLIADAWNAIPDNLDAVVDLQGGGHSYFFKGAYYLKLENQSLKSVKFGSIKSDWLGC

As to `NC(=O)[C@H](CCC(=O)O)NC(=O)[C@H](CCC(=O)O)NC(=O)[C@@H](CC(=O)O)Cc1cc(-c2ccc(-c3cccc(Cl)c3)cc2)no1`, the outcome (on Collagenase 3; in assay [2]) was Active. Moreover, in assay [1], the Ratio Ki stood at 980.
Consider `NC(=O)[C@H](CCC(=O)O)NC(=O)[C@H](CCC(=O)O)NC(=O)[C@H](Cc1cc(-c2ccc(-c3cccc(Cl)c3)cc2)no1)CP(=O)(O)c1ccc(Br)cc1`, for which the Ki – broadly, a dissociation constant, usually derived from enzyme kinetics or from competition with a known ligand – was 139 nM at Collagenase 3 and 149 nM on Stromelysin-2. In assay [1], the Ratio Ki worked out at 1100.
As for `NC(=O)[C@H](CCC(=O)O)NC(=O)[C@H](CCC(=O)O)NC(=O)[C@@H](CC(=O)NO)Cc1cc(-c2ccc(-c3cccc(Cl)c3)cc2)no1`, the figures for the Ki at Collagenase 3 and at Stromelysin-2 were 0.008 nM and 1.4 nM, respectively.

Source of the values: ChEMBL document CHEMBL4041532, “Zinc-Metalloproteinase Inhibitors: Evaluation of the Complex Role Played by the Zinc-Binding Group on Potency and Selectivity” (J Med Chem, 2017).
